Laboratory results as given in patent publication US8501166B2, “Pyrimidinyl indole compounds” (Hutchison Medipharma Limited, priority 2010, dated 2013).
Structures can show the parent of a compound that is named as a salt.

Assays:
[1] = system: OVA-induced airway inflammation; experiment: Ovalbumin (OVA)-induced pulmonary inflammation in mice; type: in vivo, Balb/c mice; conditions: dexamethasone 1 mg/kg (qd)
Description: A compound of the present invention is tested in an OVA-induced pulmonary inflammation model in mice essentially as described in a method reported in the literature (Muriel Pichavant, Sho Goya, Eckard Hamelmann, Erwin W. Gelfand, and Dale T. Umetsu. Animal Models of Airway Sensitization. Current Protocols in Immunology. (1999) 15.18.1-15.18.13). Briefly, female Balb/c mice weighing from 18 to 20 g are sensitized by introperitoneal injection of 100 μL of saline containing 20 μg of OVA and 2 mg of aluminum hydroxide on day 1 and 14. On days 28, 29 and 30, mice are challenged once each by aerosolizing 1% ovalbumin (OVA) in phosphate buffered saline (PBS) for 20 minutes with Buxco Mass Dosing System. […] On day 32, animals from each group are anesthetized with 1% of pentobarbital sodium. The thoracic and abdominal cavities are opened and plasma is collected from centrifuged specimens. The trachea is then dissected and transected. Through the insertion of an 18-gauge catheter into the trachea, the lungs are lavaged with a total of 1.5 mL of sterile PBS and then placed into a specimen container. Cell-free BAL supernatants are obtained by centrifugation of BAL fluids. All serum and BAL supernatants are stored at −80° C. until use. Differential cell counts are performed on cytospin preparations of BAL cells for cell counting and cytokine determination. After the collection of BAL supernatants, the lungs of recipient mice are removed en bloc and fixed by an intratracheal instillation of 10% buffered formalin (in PBS). Three to six paraffin sections are obtained from the perihilar regions of recipient lungs, stained with hematoxylin and eosin, and examined under light microscopy for pathological study.

BxPC-3 cells = experiment: Cell viability test, combination study, BxPC-3; type: cell-based, human; conditions: for Ave. Inhibition rate: 72 h
Description: (§1) To evaluate biological activity of a compound in vitro, the cell viability test is applied, in which, IKKβ receptor plays an important role in cell survival and proliferation. Once the IKKβ pathway is blocked by inhibitors, a cell can go through apoptosis or death. The cell viability test provides information on cell survival after treatment with IKK inhibitors.
(§2) BxPC-3 cells (ATCC #CRL-1687; human pancreatic cancer cell line) are grown in Roswell Park Memorial Institute (RPMI) 1640 media (Gibco #A10491-01) supplemented with 10% fetal bovine serum (FBS) (Gibco #10099-141). Skov3-luc cells (ATCC, human ovarian carcinoma cell line) are grown in McCoy's 5a medium (Gibco#16600) supplemented with 10% FBS (Gibco#10099-141). For compound testing, BxPc-3 and Skov3-Luc cells are seeded at 2000 and 5000 cells/well respectively in 100 μL of corresponding media specified above for each cell line in 96-well plates 20 h prior to treatment. Cells are treated with a test compound at eight different concentrations in the presence of 0.5% DMSO for 72 h. Cell death in each well is determined by the addition of 20 μL of the One Solution Reagent (CELLTITER 96® AQueous One Solution Cell Proliferation Assay, Promega #G3580). After 2-4 h of incubation at 37° C., optical densities at 492 nm are measured with a microplate reader Inhibition of cell viability is determined by comparison to the control cells treated in the absence of a test compound.
(§3) For the combination study of the compound with other antitumor agents, BxPc-3 and Skov3-Luc cells are seeded at 2000 and 5000 cells/well respectively in 100 μL corresponding media specified above for each cell line in 96-well plates 20 h prior to the treatment. The cells are treated with the test compound at a number of concentrations for 30 minutes and then exposed to 5 ng/mL TNFα or 0.15-0.6 uM of VCR (vincristine sulfate) for an additional 72 hours. Cell death in each well is determined by the addition of 20 μL of the One Solution Reagent (CELLTITER 96® AQueous One Solution Cell Proliferation Assay, Promega #G3580). After 2-4 h of incubation at 37° C., optical densities at 492 nm are measured with a microplate reader Inhibition of cell viability is determined by comparison to the control cells treated in the absence of a test compound. For example, the results of the combination study with Example 1 are specially detailed in Table 2.

Skov3-luc cells = experiment: Cell viability test, combination study, Skov3-luc; type: cell-based; conditions: Homo sapiens, 72 h, Vincristine 0.25 μM alone, read-out: Ave. Inhibition rate
Description: as §1, §2
as §3, with “The cells are treated with the test compound at a number of concentrations for 30 minutes and then exposed to 5 ng/mL TNFα or 0.15-0.6 uM of VCR (vincristine sulfate) for an additional 72 hours.” left out, “For example, the results of the combination study with Example 1 are specially detailed in Table 2.” left out

[2] = system: SKOV-3x-FF-luci human ovarian cancer xenograft; experiment: Antitumor effect in SKOV-3x-FF-luci xenograft with vincristine (VCR); type: in vivo, Balb/c nu/nu mice; conditions: VCR alone at suboptimal dose, tail vein, once a week
Description: In order to expand the anti-tumor spectrum, more combination testing is explored. Based on in vitro synergistic effect of Example 1 and VCR, the compound is tested for its anti-tumor effects in SKOV-3x-FF-luci xenograft in the presence/absence of VCR. The SKOV-3x-FF-luci human ovarian cancer line (ATCC) is cultured in McCoy's 5a medium containing 10% FCS. Female Balb/c nu/nu mice (6-7 weeks old) are peritoneally injected with 0.2 mL of cell suspension containing 2×10^6 cells. Mice are divided into nine groups six days after cell implantation. The test compound is orally administered twice a day at 60 mg/kg for 20 consecutive days or at 90 mg/kg with a 2 days on and 5 days off dosing schedule. VCR at 1 or 0.3 mg/kg is administered via tail vein injection, once a week. In the combination group, VCR is given 1 h after the administration of the test compound. Mice from the control group are administered with the oral vehicle (10% Acacia at pH2.1) and intraperitoneally injected with saline. At the end of the treatment, all mice are euthanized with CO2 and tumors in the peritoneal cavity, diaphragmatic muscle, mesenterium, liver, spleen, and ovaries are harvested with surgery scissors and weighted. […] In the combination group, tumor growth is inhibited by 76% and 74%. Compared with monotherapy, statistical significance is found between combination and monotherapy.

C[C@@H]1C[C@H]2[C@@H]3CCC4=CC(=O)C=C[C@]4(C)[C@@]3(F)[C@@H](O)C[C@]2(C)[C@@]1(O)C(=O)CO [Dexamethasone, reference compound]
decrease of IL-13 in BALF [1]: 77%

CC[C@]1(O)C[C@H]2CN(CCc3c([nH]c4ccccc34)[C@@](C(=O)OC)(c3cc4c(cc3OC)N(C=O)[C@H]3[C@@](O)(C(=O)OC)[C@H](OC(C)=O)[C@]5(CC)C=CCN6CC[C@]43[C@@H]65)C2)C1 [Vincristine, vincristine sulfate, reference compound]
inhibition at 0.15 µM (BxPC-3 cells; Homo sapiens, BXPC-3, 72 h, Vincristine 0.15 μM alone, read-out: Ave. Inhibition rate): 5.73% | Ave. Inhibition rate (BxPC-3 cells; Vincristine 0.15 μM alone): 9.48% | inhibition at 0.25 µM (Skov3-luc cells): 25% | tumor growth inhibition [2]: 38%

TNFα
Ave. Inhibition rate (BxPC-3 cells; TNFα 5 ng/mL alone): 5.73%
